This is an account of results in patent US5180712A, “Petide antidementia and nootropic agents” (Fujirebio Kabushiki Kaisha, priority 1988, dated 1993).

Each structure is given as a SMILES string. Where a SMILES comes first, the peptide text is derived from it. Bridges are numbered along the chain shown (N, C = ends). Roman numbers before positions name the chains, in order. [ ]: non-standard residue; d: D form. The star is where a group is joined. Cys(free,S-linked) = N[C@@H](CS*)C(=O)O; pGlu = O=C1CC[C@@H](C(=O)O)N1

Test [1] deals with male Wistar rats. The test is described as follows: one-trial passive avoidance: facilitation effect of memory consolidation. The class given is in vivo, rat. To be noted: for Effect (ratio of the response latent period of each group to that of the control groups): retention tested 24 hours later, latency max 600 seconds. Here is the method:
The effect of peptides of the invention on memory consolidation was evaluated by conducting one-trial passive avoidance experiments using male Wistar rats in accordance with the method described by Burbach et al., Science, vol. 221, pp. 1310-1312, 1983. The apparatus was composed of an illuminated room and a dark room, and their floors were made of a stainless-steel grid. The rats placed in the illuminated room could freely enter the dark room. Upon entering the dark room the rats received an electro-shock. Retention of passive avoidance behavior to the electro-shock was determined by the measurement of a response latent period, i.e. the period required for the rat which experienced the electro-shock to re-enter the dark room from the time at which the rat was placed in the illuminated room after predetermined intervals. The rats were treated with the peptides of the invention obtained in the aforementioned Example 1 to 4 or a physiological saline solution by means of a subcutaneous injection immediately after receiving the electro-shock (0.25 mA). Then 24 hours later, the retention of the memory of the electro-shock was tested. […] Comparison Compound 2 (known peptide): [drawing 14] For each group, 6 to 8 rats were tested. The response latent period was measured up to a maximum of 600 seconds. The dose and the effect (the ratio of the response latent period of each group to that of the control groups, shown as %) of the peptides obtained in each example and the peptides of each comparison compound are set forth in Table 1.

Test [2] concerns male Wistar rats. The test is described as follows: one-trial passive avoidance: improvement effect of experimental retrograde amnesia by cycloheximide. It counts as in vivo, rat. To be noted: 1 hr before electro-shock (0.5 mA), cycloheximide 2.7 to 3.0 mg/kg s.c. after shock, tested at 48 hours. As to the method:
The effect of peptides of the invention on memory consolidation was evaluated by conducting one-trial passive avoidance experiments using male Wistar rats in accordance with the method described by Burbach et al., Science, vol. 221, pp. 1310-1312, 1983. The apparatus was composed of an illuminated room and a dark room, and their floors were made of a stainless-steel grid. The rats placed in the illuminated room could freely enter the dark room. Upon entering the dark room the rats received an electro-shock. Retention of passive avoidance behavior to the electro-shock was determined by the measurement of a response latent period, i.e. the period required for the rat which experienced the electro-shock to re-enter the dark room from the time at which the rat was placed in the illuminated room after predetermined intervals. The rats received an electro-shock (0.5 mA) one hr. after the administration of the peptides of the invention or a physiological saline solution. Immediately after receiving the electro-shock, the rats were treated with 2.7 to 3.0 mg/kg of cycloheximide or the saline solution by subcutaneous injection. At 48 hours after the administration was made, memory retention of the rats was tested. […] The average response latent period of rats administered with each peptide of the invention and treated with cycloheximide were compared with that of the control group. Six to eight rats were used for each group tested. The response latent period was measured up to a maximum of 600 seconds. The dose and the effect (the ratio of response latent period of each group to that of the control groups, shown as %) of the peptides obtained in each example and the peptides of each comparison example are set forth in Table 2.

Where [3] appears, read: dose 1 ng/kg subcutaneous immediately after electro-shock (0.25 mA).

As for `N=C(N)NCCC[C@@H](NC(=O)[C@@H]1CCCN1C(=O)[C@H](CSSC[C@H](N)C(=O)O)NC(=O)[C@H](CC(N)=O)NC(=O)[C@@H]1CCC(=O)N1)C(=O)NCC(N)=O` [Example 1] ([pGlu]NC(Cys(free,S-linked))P[dR]G-NH2), the “Effect (ratio of the response latent period of each group to that of the control groups)” value in the test on male Wistar rats [1] (setting [3]) came out at 267%. Further, in the test with male Wistar rats [1] (passive avoidance tests, versus Comparison Compound 1), the “dose giving the same effect, as fraction of the dose of Comparison Compound 1” value was 1/10. For the same compound, the “Effect (ratio of response latent period of each group to that of the control groups)” value with male Wistar rats [2] (dose 1 ng/kg) amounted to 302%.

Turning to `N=C(N)NCCC[C@H](NC(=O)[C@@H]1CCCN1C(=O)[C@H](CSSC[C@H](NC(=O)[C@H](CC(N)=O)NC(=O)[C@@H]1CCC(=O)N1)C(=O)N1CCC[C@H]1C(=O)N[C@@H](CCCNC(=N)N)C(=O)NCC(N)=O)NC(=O)[C@H](CC(N)=O)NC(=O)[C@@H]1CCC(=O)N1)C(=O)NCC(N)=O` [Comparison 2, reference compound] (I: [pGlu]NCPRG-NH2 / II: [pGlu]NCPRG-NH2; disulfide I:3-II:3), the “Effect (ratio of the response latent period of each group to that of the control groups)” value in the test on male Wistar rats [1] (dose 10 ng/kg subcutaneous immediately after electro-shock (0.25 mA)) came to 249%. In addition, in the test with male Wistar rats [2] (dose 100 ng/kg), the “Effect (ratio of response latent period of each group to that of the control groups)” value is listed as 503%.

On to `N=C(N)NCCC[C@H](NC(=O)[C@H]1CCCN1C(=O)[C@H](CSSC[C@H](N)C(=O)O)NC(=O)[C@H](CC(N)=O)NC(=O)[C@@H]1CCC(=O)N1)C(=O)NCC(N)=O` [Example 3] ([pGlu]NC(Cys(free,S-linked))[dP]RG-NH2), for which, in the test on male Wistar rats [1] (setting [3]), the “Effect (ratio of the response latent period of each group to that of the control groups)” value is on record as 253%. In addition, the “Effect (ratio of response latent period of each group to that of the control groups)” value with male Wistar rats [2] (dose 1 ng/kg) came to 380%.

With `N=C(N)NCCC[C@H](NC(=O)[C@@H]1CCCN1C(=O)[C@H](CS)NC(=O)[C@H](CC(N)=O)NC(=O)[C@@H]1CCC(=O)N1)C(=O)NCC(N)=O` [Example 2, pGlu-Asn-Cys-Pro-Arg-Gly--NH2 acetate] ([pGlu]NCPRG-NH2), the “Effect (ratio of the response latent period of each group to that of the control groups)” value in the test with male Wistar rats [1] (setting [3]) came to 295%. Besides, the “Effect (ratio of response latent period of each group to that of the control groups)” value with male Wistar rats [2] (dose 1 ng/kg) was found to be 633%.

With `N=C(N)NCCC[C@H](NC(=O)[C@@H]1CCCN1C(=O)[C@H](CS)NC(=O)[C@@H](N)CC(N)=O)C(=O)O` [Example 4, H-Asn-Cys-Pro-Arg-OH acetate] (H-NCPR-OH), the “Effect (ratio of the response latent period of each group to that of the control groups)” value in the test on male Wistar rats [1] (setting [3]) came to 316%. In addition, the “Effect (ratio of response latent period of each group to that of the control groups)” value in the test with male Wistar rats [2] (dose 1 ng/kg) was 320%.
